The target of experiment [1] is GDP-bound NRAS wild-type protein (Homo sapiens, UniProt P01111). Description: Binding to NRAS by surface plasmon resonance (SPR), KD and KD ratio to KRAS. To be noted: ratio of KD for GDP-bound NRAS wild-type protein to KD for KRAS. In short, it runs like this: (§1)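 SPR, 30°C: Avi-biotin RAS·GDP captured via Biotin CAPture (~100–300 RU); running buffer HBS pH 7.4, 1 mM DTT, 10 mM MgCl2, 0.01% Tween 20, 10 µM GDP, 4% DMSO. Single-cycle kinetics, 100 µL/min, 75 s injections; 1:1 model → KD.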

Experiment [2] has as its target HRAS wild-type protein (Homo sapiens, UniProt P01112). Description: Binding to HRAS by surface plasmon resonance (SPR), KD and KD ratio to KRAS. The settings on record: ratio of KD for HRAS wild-type protein to KD for KRAS. The procedure, abridged: as §1
In experiment [3] the test system is human lung cancer strain NCI-H441. It counts as cell-based. The procedure, abridged:
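Proliferation was scored by […] measured after the reagent was added to cultures kept at 37°C in 5% carbon dioxide.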

pIC50: −log10 of the molar value.

The term pIC50 denotes the negative decadic logarithm of the IC50, by convention in mol/L. The low end stands for a large IC50, the high end for a small IC50.

Sequence of GDP-bound NRAS wild-type protein (P01111 whole entry): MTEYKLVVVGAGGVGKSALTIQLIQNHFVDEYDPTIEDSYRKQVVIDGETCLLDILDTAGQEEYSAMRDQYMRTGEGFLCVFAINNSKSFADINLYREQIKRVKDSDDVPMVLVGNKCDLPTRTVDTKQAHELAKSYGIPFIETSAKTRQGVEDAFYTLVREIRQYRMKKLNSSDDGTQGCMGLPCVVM
Sequence of HRAS wild-type protein (P01112 whole entry): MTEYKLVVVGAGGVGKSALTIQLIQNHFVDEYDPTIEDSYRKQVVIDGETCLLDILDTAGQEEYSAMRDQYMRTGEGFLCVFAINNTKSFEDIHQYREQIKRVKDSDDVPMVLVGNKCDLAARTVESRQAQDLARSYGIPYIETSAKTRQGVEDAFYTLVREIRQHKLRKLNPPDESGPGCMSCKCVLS

`CC[C@H](C)[C@@H]1NC(=O)[C@@H]2CCCc3ccc(cc3)C[C@@H](C(=O)N(C)CC(=O)N[C@@H](CCc3ccc(C(F)(F)F)c(OC)c3)C(=O)N3C[C@H](OC4CCCC4)C[C@H]3C(=O)NC3(CC(C)(C)C3)C(=O)N(C)[C@@H](C3CCCC3)C(=O)N(C)[C@H](C(=O)N(C)CC)CC(=O)N2C)N2CC/C=C\C[C@@H](C2=O)N(C)C(=O)CN(C)C1=O` [PP3086]: the “NRAS /KRAS” value in experiment [1] was “B (a compound having 3 or more and less than 10 is denoted as B)”. Besides, the “HRAS /KRAS” value in experiment [2] is “B (a compound having 3 or more and less than 10 is denoted as B)”. This molecule also showed a negative logarithm of the IC50 (pIC50) in experiment [3] of 8.10.

For `CC[C@H](C)[C@@H]1NC(=O)[C@@H]2CCCc3ccc(cc3)C[C@@H](C(=O)N(C)CC(=O)N[C@@H](CCc3ccc(C(F)(F)F)c(OC)c3)C(=O)N3CC4(CC4)C[C@H]3C(=O)NC3(CC(C)(C)C3)C(=O)N(C)[C@@H](C3CCCC3)C(=O)N(C)[C@H](C(=O)N(C)CC)CC(=O)N2C)N2CC/C=C\C[C@@H](C2=O)N(C)C(=O)CN(C)C1=O` [PP3087], the “NRAS /KRAS” value in experiment [1] was “A (a compound having 10 or more and less than 20 is denoted as A)”. In experiment [2], the “HRAS /KRAS” value was “B (a compound having 3 or more and less than 10 is denoted as B)”. This molecule also had a pIC50 in experiment [3] of 8.16.

Take `CCCO[C@@H]1C[C@H]2C(=O)NC3(CC(C)(C)C3)C(=O)N(C)[C@@H](C3CCCC3)C(=O)N(C)[C@H](C(=O)N(C)CC)CC(=O)N(C)[C@H]3CCCc4ccc(cc4)C[C@@H](C(=O)N(C)CC(=O)N[C@@H](CCc4ccc(C(F)(F)F)c(OC)c4)C(=O)N2C1)N1CC/C=C\C[C@@H](C1=O)N(C)C(=O)CN(C1CC1)C(=O)[C@H]([C@@H](C)CC)NC3=O` [PP3088]: the “NRAS /KRAS” value in experiment [1] was “B (a compound having 3 or more and less than 10 is denoted as B)”. For the same molecule, the “HRAS /KRAS” value in experiment [2] was “B (a compound having 3 or more and less than 10 is denoted as B)”. In addition, the negative logarithm of the IC50 (pIC50) in experiment [3] was 7.82.

For the molecule `CCCO[C@@H]1C[C@H]2C(=O)NC3(CC(C)(C)C3)C(=O)N(C)[C@@H](C3CCCC3)C(=O)N(C)[C@H](C(=O)N(C)CC)CC(=O)N(C)[C@H]3CCCc4ccc(cc4)C[C@@H](C(=O)N(C)CC(=O)N[C@@H](CCc4ccc(Cl)c(Cl)c4)C(=O)N2C1)N1CC/C=C\C[C@@H](C1=O)N(C)C(=O)CN(C)C(=O)[C@H]([C@@H](C)CC)NC3=O` [PP3089], the “NRAS /KRAS” value in experiment [1] was “B (a compound having 3 or more and less than 10 is denoted as B)”. The “HRAS /KRAS” value in experiment [2] is “B (a compound having 3 or more and less than 10 is denoted as B)”. This molecule showed a negative logarithm of the IC50 (pIC50) in experiment [3] of 7.57.

Regarding `CCO[C@@H]1C[C@H]2C(=O)N(C)C3(CC(C)(C)C3)C(=O)N(C)[C@@H](C3CCCC3)C(=O)N(C)[C@H](C(=O)N(C)C)CC(=O)N(C)[C@H]3CCCCCCc4ccc(cc4)C[C@@H](C(=O)N(C)CC(=O)N[C@@H](CCc4ccc(C(F)(F)F)c(OC)c4)C(=O)N2C1)N1CC/C=C\C[C@@H](C1=O)N(C)C(=O)CN(C)C(=O)[C@H]([C@@H](C)CC)NC3=O` [PP3090], the “NRAS /KRAS” value in experiment [1] is “A (a compound having 10 or more and less than 20 is denoted as A)”. Also, in experiment [2], the “HRAS /KRAS” value was “B (a compound having 3 or more and less than 10 is denoted as B)”. In experiment [3], the negative-log IC50 (pIC50) was 8.89.

As to `CCCO[C@@H]1C[C@H]2C(=O)NC3(CC(C)(C)C3)C(=O)N(C)[C@@H](C3CCCC3)C(=O)N(C)[C@H](C(=O)N(C)C)CC(=O)N(C)[C@H]3CCCCc4ccc(cc4)C[C@@H](C(=O)N(C)CC(=O)N[C@@H](CCc4ccc(Cl)c(Cl)c4)C(=O)N2C1)N1CC/C=C\C[C@@H](C1=O)N(C)C(=O)CN(C)C(=O)[C@H]([C@@H](C)CC)NC3=O` [PP3092], in experiment [1], the “NRAS /KRAS” value was “A (a compound having 10 or more and less than 20 is denoted as A)”. Moreover, the “HRAS /KRAS” value in experiment [2] was “A (a compound having 10 or more and less than 20 is denoted as A)”. In experiment [3], the pIC50 was 8.13.

Consider `CCCO[C@@H]1C[C@H]2C(=O)NC3(CC(C)(C)C3)C(=O)N(C)[C@@H](C3CCCC3)C(=O)N(C)[C@H](C(=O)N3CCCC3)CC(=O)N(C)[C@H]3CCCCc4ccc(cc4)C[C@@H](C(=O)N(C)CC(=O)N[C@@H](CCc4ccc(C(F)(F)F)c(OC)c4)C(=O)N2C1)N1CC/C=C\C[C@@H](C1=O)N(C)C(=O)CN(C)C(=O)[C@H]([C@@H](C)CC)NC3=O` [PP3094], for which the “NRAS /KRAS” value in experiment [1] was “A (a compound having 10 or more and less than 20 is denoted as A)”. Besides, in experiment [2], the “HRAS /KRAS” value was “B (a compound having 3 or more and less than 10 is denoted as B)”. This molecule showed a pIC50 in experiment [3] of 8.66.

As for `CCC[C@H]1C(=O)N[C@@H]([C@@H](C)CC)C(=O)N(C2CC2)CC(=O)N(C)[C@H]2C/C=C\CCN(C2=O)[C@@H](Cc2ccc(C(F)(F)F)cc2)C(=O)N(C)CC(=O)N[C@@H](CCc2ccc(C(F)(F)F)c(OC)c2)C(=O)N2C[C@H](OCC)C[C@H]2C(=O)N(C)C2(CCC2)C(=O)N(C)[C@@H](C2CCCC2)C(=O)N(C)[C@H](C(=O)N2CCCCC2)CC(=O)N1C` [PP3095], the “NRAS /KRAS” value in experiment [1] is “A (a compound having 10 or more and less than 20 is denoted as A)”. Also, in experiment [2], the “HRAS /KRAS” value is “A (a compound having 10 or more and less than 20 is denoted as A)”. For the same molecule, in experiment [3], the pIC50 was 7.47.

As for `CCC[C@H]1C(=O)N[C@@H]([C@@H](C)CC)C(=O)N(C2CC2)CC(=O)N(C)[C@H]2C/C=C\CCN(C2=O)[C@@H](Cc2ccc(C)cc2)C(=O)N(C)CC(=O)N[C@@H](CCc2ccc(C(F)(F)F)c(OC)c2)C(=O)N2C[C@H](OCC)C[C@H]2C(=O)N(C)C2(CCC2)C(=O)N(C)[C@@H](C2CCCC2)C(=O)N(C)[C@H](C(=O)N2CCCCC2)CC(=O)N1C` [PP3096], the “NRAS /KRAS” value in experiment [1] was “A (a compound having 10 or more and less than 20 is denoted as A)”. Further, in experiment [2], the “HRAS /KRAS” value was “A (a compound having 10 or more and less than 20 is denoted as A)”. For the same molecule, the negative logarithm of the IC50 (pIC50) in experiment [3] was 7.45.

On to `CCC[C@H]1C(=O)N[C@@H]([C@@H](C)CC)C(=O)N(C2CC2)CC(=O)N(C)[C@H]2C/C=C\CCN(C2=O)[C@@H](Cc2ccc(C(F)(F)F)cc2)C(=O)N(C)CC(=O)N[C@@H](CCc2ccc(C(F)(F)F)c(OC)c2)C(=O)N2C[C@H](OCC)C[C@H]2C(=O)N(C)C2(CCC2)C(=O)N(C)[C@@H](C2CCCC2)C(=O)N(C)[C@H](C(=O)N2CCCC2)CC(=O)N1C` [PP3097], for which, in experiment [1], the “NRAS /KRAS” value is “A (a compound having 10 or more and less than 20 is denoted as A)”. Moreover, in experiment [2], the “HRAS /KRAS” value is “A (a compound having 10 or more and less than 20 is denoted as A)”. In experiment [3], this molecule had a pIC50 of 8.27.

In the case of `CCC[C@H]1C(=O)N[C@@H]([C@@H](C)CC)C(=O)N(C2CC2)CC(=O)N(C)[C@H]2C/C=C\CCN(C2=O)[C@@H](Cc2ccc(C)cc2)C(=O)N(C)CC(=O)N[C@@H](CCc2ccc(C(F)(F)F)c(OC)c2)C(=O)N2C[C@H](OCC)C[C@H]2C(=O)N(C)C2(CCC2)C(=O)N(C)[C@@H](C2CCCC2)C(=O)N(C)[C@H](C(=O)N2CCCC2)CC(=O)N1C` [PP3098], the “NRAS /KRAS” value in experiment [1] was “A (a compound having 10 or more and less than 20 is denoted as A)”. In experiment [2], the “HRAS /KRAS” value was “A (a compound having 10 or more and less than 20 is denoted as A)”. In experiment [3], this molecule had a negative logarithm of the IC50 (pIC50) of 8.33.

On to `CCC[C@H]1C(=O)N[C@@H]([C@@H](C)CC)C(=O)N2CCC[C@H]2C(=O)N(C)[C@H]2C/C=C\CCN(C2=O)[C@@H](Cc2ccc(C(F)(F)F)cc2)C(=O)N(C)CC(=O)N[C@@H](CCc2ccc(C(F)(F)F)c(OC)c2)C(=O)N2C[C@H](OCC)C[C@H]2C(=O)N(C)C2(CCC2)C(=O)N(C)[C@@H](C2CCCC2)C(=O)N(C)[C@H](C(=O)N2CCCCC2)CC(=O)N1C` [PP3099], for which the “NRAS /KRAS” value in experiment [1] is “A (a compound having 10 or more and less than 20 is denoted as A)”. The “HRAS /KRAS” value in experiment [2] was “A (a compound having 10 or more and less than 20 is denoted as A)”. In experiment [3], this molecule had a pIC50 of 7.88.

Values taken from patent EP4603105A1, “PHARMACEUTICAL COMPOSITION CONTAINING CYCLIC COMPOUND HAVING SELECTIVE KRAS INHIBITORY EFFECT AGAINST HRAS AND NRAS” (CHUGAI SEIYAKU KABUSHIKI KAISHA, priority 2022, dated 2024).
